Patent US20120220562A1, “Anti-Viral Compounds” (ABBOTT LABAORATORIES, priority 2011, published 2012)

What follows are compounds tested on HCV 1b-Con1 replicon (assay: HCV 1b-Con1 replicon assay in the presence of 5% FBS). Conditions: Hepatitis C virus.
Type: cell-based
In the case of `COC(=O)N[C@H](C(=O)N1CCC[C@H]1c1nc2cc(F)c([C@H]3CC[C@H](c4cc5[nH]c([C@@H]6CCCN6C(=O)[C@@H](NC(=O)OC)C6CCCC6)nc5cc4F)N3c3cc(F)c(N4CCN(c5ccc(C(F)(F)F)cc5)CC4)c(F)c3)cc2[nH]1)C1CCCC1` [Example 4.45, dimethyl ([(2R,5R)-1-(3,5-difluoro-4-{4-[4-(trifluoromethyl)phenyl]piperazin-1-yl}phenyl)pyrrolidine-2,5-diyl]bis{(5-fluoro-1H-benzimidazole-6,2-diyl)(2S)pyrrolidine-2,1-diyl[(1S)-1-cyclopentyl-2-oxoethane-2,1-diyl]})bis carbamate], the EC50 is reported as < 0.1 nM.
`COC(=O)N[C@H](C(=O)N1CCC[C@H]1c1nc2ccc([C@H]3CC[C@H](c4ccc5nc([C@@H]6CCCN6C(=O)[C@@H](NC(=O)OC)C6CC6)[nH]c5c4)N3c3ccc(C(C)(C)C)cc3)cc2[nH]1)C1CC1` [Example 4.16, dimethyl ([(2R,5R)-1-(4-tert-butylphenyl)pyrrolidine-2,5-diyl]bis{1H-benzimidazole-6,2-diyl(2S)pyrrolidine-2,1-diyl [(1S)-1-cyclopropyl-2-oxoethane-2,1-diyl]}) biscarbamate] was tested, and the EC50 was < 0.1 nM.
`COC(=O)N[C@H](C(=O)N1[C@H](c2nc3cc([C@H]4CC[C@H](c5ccc6[nH]c([C@@H]7C[C@@H]8CCC[C@@H]8N7C(=O)[C@@H](NC(=O)OC)C7CCOCC7)nc6c5)N4c4cc(F)c(N5CCCCC5)c(F)c4)ccc3[nH]2)C[C@@H]2CCC[C@@H]21)C1CCOCC1` [Example 3.32, dimethyl ({(2R,5R)-1-[3,5-difluoro-4-(piperidin-1-yl)phenyl]pyrrolidine-2,5-diyl}bis{1H-benzimidazole-5,2-diyl(2S,3aS,6aS)hexahydrocyclopenta[b]pyrrole-2,1(2H)-diyl[(1S)-2-oxo-1-(tetrahydro-2H-pyran-4-yl)ethane-2,1-diyl]})biscarbamate] was tested, and the EC50 was < 0.1 nM.
In the case of `C=C1C[C@@H](c2nc3cc([C@H]4CC[C@H](c5ccc6[nH]c([C@@H]7CC(=C)CN7C(=O)[C@@H](NC(=O)OC)C(C)C)nc6c5)N4c4ccc(C(C)(C)C)cc4)ccc3[nH]2)N(C(=O)[C@@H](NC(=O)OC)C(C)C)C1` [Example 3.26, methyl {(2S)-1-[(2S)-2-{5-[(2R,5R)-1-(4-tert-butylphenyl)-5-{2-[(2S)-1-{(2S)-2-[(methoxycarbonyl)amino]-3-methylbutanoyl}-4-methylidenepyrrolidin-2-yl]-1H-benzimidazol-5-yl}pyrrolidin-2-yl]-1H-benzimidazol-2-yl}-4-methylidenepyrrolidin-1-yl]-3-methyl-1-oxobutan-2-yl}carbamate], the EC50 is reported as < 0.1 nM.
For `COC(=O)N[C@H](C(=O)N1CCC[C@H]1c1nc2c(F)c([C@H]3CC[C@H](c4ccc5nc([C@@H]6CCCN6C(=O)[C@@H](NC(=O)OC)C(C)C)[nH]c5c4F)N3c3ccc(C(C)(C)C)cc3)ccc2[nH]1)C(C)C` [Example 6.3, methyl {(2S)-1-[(2S)-2-{5-[(2R,5R)-1-(4-tert-butylphenyl)-5-{7-fluoro-2-[(2S)-1-{(2S)-2-[(methoxycarbonyl)amino]-3-methylbutanoyl}pyrrolidin-2-yl]-1H-benzimidazol-6-yl}pyrrolidin-2-yl]-4-fluoro-1H-benzimidazol-2-yl}pyrrolidin-1-yl]-3-methyl-1-oxobutan-2-yl}carbamate], the EC50 was < 0.1 nM.
`COC(=O)N[C@H](C(=O)N1CCC[C@H]1c1nc2cc([C@H]3CC[C@H](c4ccc5[nH]c([C@@H]6CCCN6C(=O)[C@@H](NC(=O)OC)C(C)C)nc5c4)N3c3cc(F)c(N4C[C@H]5CC[C@H]5C4)c(F)c3)ccc2[nH]1)C(C)C` [Example 1.8, methyl {(2S)-1-[(2S)-2-{5-[(2R,5R)-1-{4-[(1R,5S)-3-azabicyclo[3.2.0]hept-3-yl]-3,5-difluorophenyl}-5-{2-[(2S)-1-{(2S)-2-[(methoxycarbonyl)amino]-3-methylbutanoyl}pyrrolidin-2-yl]-1H-benzimidazol-5-yl}pyrrolidin-2-yl]-1H-benzimidazol-2-yl}pyrrolidin-1-yl]-3-methyl-1-oxobutan-2-yl}carbamate] was tested, and the EC50 was < 0.1 nM.
With `COC(=O)N[C@H](C(=O)N1CCC[C@H]1c1nc2cc([C@H]3CC[C@@H](c4cc5nc([C@@H]6CCCN6C(=O)[C@@H](NC(=O)OC)C(C)C)[nH]c5cc4F)N3c3cnc(N4CCCCC4)nc3)c(F)cc2[nH]1)C(C)C` [Example 3.47, methyl {(2S)-1-[(2S)-2-(6-fluoro-5-{(2R,5S)-5-{6-fluoro-2-[(2S)-1-{(2S)-2-[(methoxycarbonyl)amino]-3-methylbutanoyl}pyrrolidin-2-yl]-1H-benzimidazol-5-yl}-1-[2-(piperidin-1-yl)pyrimidin-5-yl]pyrrolidin-2-yl}-1H-benzimidazol-2-yl)pyrrolidin-1-yl]-3-methyl-1-oxobutan-2-yl}carbamate] the EC50 was < 0.1 nM.
`COC(=O)N[C@H](C(=O)N1CCC[C@H]1c1nc2cc([C@H]3CC[C@H](c4ccc5[nH]c([C@@H]6CCCN6C(=O)[C@@H](NC(=O)OC)C6CCOCC6)nc5c4)N3c3ccc(N4CCC(c5ccccc5)CC4)c(F)c3)ccc2[nH]1)C(C)C` [Example 3.21, methyl [(1S)-2-[(2S)-2-{5-[(2R,5R)-1-[3-fluoro-4-(4-phenylpiperidin-1-yl)phenyl]-5-{2-[(2S)-1-{(2S)-2-[(methoxycarbonyl)amino]-3-methylbutanoyl}pyrrolidin-2-yl]-1H-benzimidazol-5-yl}pyrrolidin-2-yl]-1H-benzimidazol-2-yl}pyrrolidin-1-yl]-2-oxo-1-(tetrahydro-2H-pyran-4-yl)ethyl]carbamate] was tested, and the EC50 was < 0.1 nM.
In the case of `COC(=O)N[C@H](C(=O)N1CCC[C@H]1c1nc2cc([C@H]3CC[C@H](c4cc5nc([C@@H]6CCCN6C(=O)[C@@H](NC(=O)OC)C(C)C)[nH]c5cc4F)N3c3cc(F)c(N4CCC5(CCCCC5)CC4)c(F)c3)c(F)cc2[nH]1)C(C)C` [Example 4.53, methyl {(2S)-1-[(2S)-2-{5-[(2R,5R)-1-[4-(3-azaspiro[5.5]undec-3-yl)-3,5-difluorophenyl]-5-{6-fluoro-2-[(2S)-1-{(2S)-2-[(methoxycarbonyl)amino]-3-methylbutanoyl}pyrrolidin-2-yl]-1H-benzimidazol-5-yl}pyrrolidin-2-yl]-6-fluoro-1H-benzimidazol-2-yl}pyrrolidin-1-yl]-3-methyl-1-oxobutan-2-yl}carbamate], the EC50 is reported as < 0.1 nM.
With `COC(=O)N[C@H](C(=O)N1CCC[C@H]1c1nc2cc([C@H]3CC[C@H](c4ccc5[nH]c([C@@H]6CCCN6C(=O)[C@@H](NC(=O)OC)C(C)C)nc5c4)N3c3ccc(Cl)c(F)c3)ccc2[nH]1)C(C)C` [Example 2.2, methyl {(2S)-1-[(2S)-2-{5-[(2R,5R)-1-(4-chloro-3-fluorophenyl)-5-{2-[(2S)-1-{(2S)-2-[(methoxycarbonyl)amino]-3-methylbutanoyl}pyrrolidin-2-yl]-1H-benzimidazol-5-yl}pyrrolidin-2-yl]-1H-benzimidazol-2-yl}pyrrolidin-1-yl]-3-methyl-1-oxobutan-2-yl}carbamate] the EC50 was < 0.1 nM.
